Where “and” joins values, the source holds several entries; their conditions need not be identical. Equal values may be shown once.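 Values below derive from 48-hour exposures of cells grown in 96-well plates, with endpoints linearly interpolated between the two concentrations bracketing the appropriate inhibition level. Here, GI50 denotes the concentration required for 50% inhibition of growth. TGI: concentration producing complete growth inhibition.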
Tests used:
Test in all cases: NCI anticancer screen, dose series, 48 h
MALME-3M melanoma = test system: MALME-3M melanoma
NCI-H522 lung = test system: NCI-H522 lung
T-47D breast = test system: T-47D breast
SK-OV-3 ovarian = test system: SK-OV-3 ovarian
HOP-62 NSCLC = test system: HOP-62 NSCLC
MOLT-4 leukemia = test system: MOLT-4 leukemia
ACHN renal = test system: ACHN renal
SN12C renal = test system: SN12C renal
MDA-MB-468 breast = test system: MDA-MB-468 breast
K-562 leukemia = test system: K-562 leukemia
U251 CNS = test system: U251 CNS
NCI-H460 lung = test system: NCI-H460 lung
DU-145 prostate = test system: DU-145 prostate
RXF 393 renal = test system: RXF 393 renal
MCF7 breast = test system: MCF7 breast
SF-539 CNS = test system: SF-539 CNS
MDA-MB-231 breast = test system: MDA-MB-231 breast
SNB-75 CNS = test system: SNB-75 CNS
M14 melanoma = test system: M14 melanoma
NCI-H226 lung = test system: NCI-H226 lung
HCT-15 colon = test system: HCT-15 colon
OVCAR-4 ovarian = test system: OVCAR-4 ovarian
LOX IMVI melanoma = test system: LOX IMVI melanoma
OVCAR-8 ovarian = test system: OVCAR-8 ovarian
BT-549 breast = test system: BT-549 breast
HT29 colon = test system: HT29 colon
KM12 colon = test system: KM12 colon
SF-268 CNS = test system: SF-268 CNS
HOP-92 NSCLC = test system: HOP-92 NSCLC
SK-MEL-28 melanoma = test system: SK-MEL-28 melanoma
HS 578T breast = test system: HS 578T breast
OVCAR-3 ovarian = test system: OVCAR-3 ovarian
COLO 205 colon = test system: COLO 205 colon
UACC-257 melanoma = test system: UACC-257 melanoma
NCI/ADR-RES ovarian = test system: NCI/ADR-RES ovarian
MDA-MB-435 = test system: MDA-MB-435
CCRF-CEM leukemia = test system: CCRF-CEM leukemia
EKVX NSCLC = test system: EKVX NSCLC
HCT-116 colon = test system: HCT-116 colon
SK-MEL-2 melanoma = test system: SK-MEL-2 melanoma
A549 NSCLC = test system: A549 NSCLC
NCI-H23 lung = test system: NCI-H23 lung
UACC-62 melanoma = test system: UACC-62 melanoma
PC-3 prostate = test system: PC-3 prostate
SNB-19 CNS = test system: SNB-19 CNS
RPMI-8226 leukemia = test system: RPMI-8226 leukemia
SF-295 CNS = test system: SF-295 CNS
OVCAR-5 ovarian = test system: OVCAR-5 ovarian
HCC-2998 colon = test system: HCC-2998 colon
SR leukemia = test system: SR leukemia
HL-60(TB) leukemia = test system: HL-60(TB) leukemia

**Q.** For `CN1CCN(C(=O)Oc2cc3c(c4ccccc24)[C@H](CCl)CN3C(=O)c2cc3cc(OCCCN4CCC4)ccc3[nH]2)[C@H]2CSSC[C@H]21`, which GI50 (MALME-3M melanoma) is on record?
**A.** 18.2 nM and 19.3 nM

**Q.** What about the TGI (MALME-3M melanoma) of the same compound?
**A.** 39.6 nM and 40.9 nM

**Q.** And the GI50 (NCI-H522 lung)?
**A.** 30.6 nM and 28.3 nM

**Q.** What about the TGI (NCI-H522 lung) of the same compound?
**A.** 154 nM and 75.8 nM

**Q.** What about the GI50 (T-47D breast) of the same compound?
**A.** 28.6 nM

**Q.** And the TGI (T-47D breast)?
**A.** 598 nM

**Q.** What about the GI50 (SK-OV-3 ovarian) of the same compound?
**A.** 23.5 nM and 29.9 nM

**Q.** And the TGI (SK-OV-3 ovarian)?
**A.** 59.6 nM and 128 nM

**Q.** And the GI50 (HOP-62 NSCLC)?
**A.** 9.09 nM and 9.6 nM

**Q.** What about the TGI (HOP-62 NSCLC) of the same compound?
**A.** 33.2 nM and 45.3 nM

**Q.** And the GI50 (MOLT-4 leukemia)?
**A.** 23.5 nM and 14.2 nM

**Q.** What about the TGI (MOLT-4 leukemia) of the same compound?
**A.** 324 nM

**Q.** And the GI50 (ACHN renal)?
**A.** 2.5 nM

**Q.** And the TGI (ACHN renal)?
**A.** 8.71 nM

**Q.** And the GI50 (SN12C renal)?
**A.** 19.4 nM and 11.6 nM

**Q.** What about the TGI (SN12C renal) of the same compound?
**A.** 459 nM and 222 nM

**Q.** And the GI50 (MDA-MB-468 breast)?
**A.** 5.3 nM

**Q.** And the TGI (MDA-MB-468 breast)?
**A.** 19.7 nM

**Q.** What about the GI50 (K-562 leukemia) of the same compound?
**A.** 24.4 nM and 17.2 nM

**Q.** And the TGI (K-562 leukemia)?
**A.** > 15300 nM

**Q.** And the GI50 (U251 CNS)?
**A.** 18 nM and 3.56 nM

**Q.** And the TGI (U251 CNS)?
**A.** 2300 nM

**Q.** What about the GI50 (NCI-H460 lung) of the same compound?
**A.** 1.63 nM

**Q.** And the TGI (NCI-H460 lung)?
**A.** 268 nM

**Q.** What about the GI50 (DU-145 prostate) of the same compound?
**A.** 4.29 nM and 5.32 nM

**Q.** And the GI50 (RXF 393 renal)?
**A.** 17.7 nM and 4.25 nM

**Q.** And the TGI (RXF 393 renal)?
**A.** 37.9 nM and 14.5 nM

**Q.** What about the GI50 (MCF7 breast) of the same compound?
**A.** 1.53 nM

**Q.** What about the TGI (MCF7 breast) of the same compound?
**A.** 1530 nM

**Q.** And the GI50 (SF-539 CNS)?
**A.** 16.8 nM and 22.4 nM

**Q.** What about the TGI (SF-539 CNS) of the same compound?
**A.** 40.6 nM and 55.4 nM

**Q.** What about the GI50 (MDA-MB-231 breast) of the same compound?
**A.** 32.1 nM and 37.8 nM

**Q.** And the TGI (MDA-MB-231 breast)?
**A.** 92.9 nM and 83.7 nM

**Q.** And the GI50 (SNB-75 CNS)?
**A.** 26 nM

**Q.** What about the TGI (SNB-75 CNS) of the same compound?
**A.** 137 nM

**Q.** And the GI50 (M14 melanoma)?
**A.** 15.9 nM and 14.2 nM

**Q.** And the TGI (M14 melanoma)?
**A.** 70 nM and 46.2 nM

**Q.** What about the GI50 (NCI-H226 lung) of the same compound?
**A.** 31.8 nM

**Q.** What about the TGI (NCI-H226 lung) of the same compound?
**A.** 1150 nM

**Q.** What about the GI50 (HCT-15 colon) of the same compound?
**A.** 13.1 nM and 11 nM

**Q.** And the TGI (HCT-15 colon)?
**A.** 40.7 nM and 50.6 nM

**Q.** And the GI50 (OVCAR-4 ovarian)?
**A.** 43.3 nM and 73.5 nM

**Q.** What about the TGI (OVCAR-4 ovarian) of the same compound?
**A.** 553 nM and 446 nM

**Q.** And the GI50 (LOX IMVI melanoma)?
**A.** 3.15 nM

**Q.** What about the TGI (LOX IMVI melanoma) of the same compound?
**A.** 24.8 nM

**Q.** And the GI50 (OVCAR-8 ovarian)?
**A.** 15.3 nM and 12.1 nM

**Q.** And the GI50 (BT-549 breast)?
**A.** 19.2 nM and 54 nM

**Q.** What about the TGI (BT-549 breast) of the same compound?
**A.** 74.1 nM and 348 nM

**Q.** What about the GI50 (HT29 colon) of the same compound?
**A.** 19.7 nM

**Q.** And the GI50 (KM12 colon)?
**A.** 46.2 nM and 90.4 nM

**Q.** What about the GI50 (SF-268 CNS) of the same compound?
**A.** 19.8 nM and 20.1 nM

**Q.** And the TGI (SF-268 CNS)?
**A.** 84.4 nM and 173 nM

**Q.** And the GI50 (HOP-92 NSCLC)?
**A.** 67.1 nM

**Q.** And the GI50 (SK-MEL-28 melanoma)?
**A.** 18.7 nM

**Q.** And the TGI (SK-MEL-28 melanoma)?
**A.** 40 nM

**Q.** What about the GI50 (HS 578T breast) of the same compound?
**A.** 100 nM and 141 nM

**Q.** What about the TGI (HS 578T breast) of the same compound?
**A.** 591 nM and 810 nM

**Q.** What about the GI50 (OVCAR-3 ovarian) of the same compound?
**A.** 28.1 nM and 50.5 nM

**Q.** What about the TGI (OVCAR-3 ovarian) of the same compound?
**A.** 88.3 nM and 292 nM

**Q.** What about the GI50 (COLO 205 colon) of the same compound?
**A.** 25.5 nM and 21.7 nM

**Q.** And the TGI (COLO 205 colon)?
**A.** 106 nM and 50.4 nM

**Q.** What about the GI50 (UACC-257 melanoma) of the same compound?
**A.** 27.3 nM and 34.4 nM

**Q.** And the TGI (UACC-257 melanoma)?
**A.** 135 nM and 86.5 nM

**Q.** And the GI50 (NCI/ADR-RES ovarian)?
**A.** 13.5 nM

**Q.** And the TGI (NCI/ADR-RES ovarian)?
**A.** 53.6 nM

**Q.** What about the GI50 (MDA-MB-435) of the same compound?
**A.** 20.3 nM and 25.1 nM

**Q.** And the TGI (MDA-MB-435)?
**A.** 47.9 nM and 55.4 nM

**Q.** And the GI50 (CCRF-CEM leukemia)?
**A.** 42 nM and 18.4 nM

**Q.** What about the GI50 (EKVX NSCLC) of the same compound?
**A.** 20.4 nM and 27.3 nM

**Q.** What about the TGI (EKVX NSCLC) of the same compound?
**A.** 59.6 nM and 70.7 nM

**Q.** What about the GI50 (HCT-116 colon) of the same compound?
**A.** 8.63 nM and 45.7 nM

**Q.** What about the TGI (HCT-116 colon) of the same compound?
**A.** > 15300 nM

**Q.** And the GI50 (SK-MEL-2 melanoma)?
**A.** 28.5 nM and 31.3 nM

**Q.** And the TGI (SK-MEL-2 melanoma)?
**A.** 62.6 nM and 53.8 nM

**Q.** And the GI50 (A549 NSCLC)?
**A.** 4.96 nM

**Q.** What about the TGI (A549 NSCLC) of the same compound?
**A.** > 15300 nM

**Q.** What about the GI50 (NCI-H23 lung) of the same compound?
**A.** 6.68 nM and 4.34 nM

**Q.** And the TGI (NCI-H23 lung)?
**A.** 25.1 nM and 19.6 nM

**Q.** What about the GI50 (UACC-62 melanoma) of the same compound?
**A.** 10.5 nM and 4.24 nM

**Q.** What about the TGI (UACC-62 melanoma) of the same compound?
**A.** 26.4 nM and 21.3 nM

**Q.** What about the GI50 (PC-3 prostate) of the same compound?
**A.** 18 nM and 34 nM

**Q.** What about the TGI (PC-3 prostate) of the same compound?
**A.** > 15300 nM

**Q.** What about the GI50 (SNB-19 CNS) of the same compound?
**A.** 23.2 nM and 17.9 nM

**Q.** And the TGI (SNB-19 CNS)?
**A.** 2460 nM and 314 nM

**Q.** What about the GI50 (RPMI-8226 leukemia) of the same compound?
**A.** 36 nM and 35.1 nM

**Q.** What about the GI50 (SF-295 CNS) of the same compound?
**A.** 10.6 nM and 2.14 nM

**Q.** And the TGI (SF-295 CNS)?
**A.** 52 nM and 5.86 nM

**Q.** And the GI50 (OVCAR-5 ovarian)?
**A.** 29 nM and 22.7 nM

**Q.** And the TGI (OVCAR-5 ovarian)?
**A.** 360 nM and 86.1 nM

**Q.** And the GI50 (HCC-2998 colon)?
**A.** 16 nM and 22 nM

**Q.** And the TGI (HCC-2998 colon)?
**A.** 47.3 nM and 52.7 nM

**Q.** What about the GI50 (SR leukemia) of the same compound?
**A.** 4.72 nM

**Q.** What about the GI50 (HL-60(TB) leukemia) of the same compound?
**A.** 49.8 nM and 28.5 nM

**Q.** What about the TGI (HL-60(TB) leukemia) of the same compound?
**A.** 368 nM
